Columns and labels:
BMDM [1] = assay: NADPH level measurement in macrophages (BMDM); type: cell-based, mouse
Method: (§1) Bone marrow derived macrophages (hereinafter referred to as BMDM) were harvested, and according to the manufacturer's instructions, EnzyChrom NAD^+/NADHA assay Kit (Bioassay Systems, Hayward, CA, USA), Elite NADPH Assay Kit (eEnzyme, Gaithersburg, MD, USA) and Cell Titer-Glo® Luminescent Cell Viability assay (Promega, Madison, WI, USA) were used for analysis.
(§2) Since NAD^+ is an important cofactor in ATP production, ATP levels were measured during LPS treatment. […] However, the NADPH level in NAMPT-depleted macrophages was reduced by 21%.

BMDMs = assay: ROS measurement in LPS- and IFN-γ-activated BMDMs; type: cell-based, mouse; settings: FIG. 13B
Method: BMDM or peritoneal macrophages were incubated with HBSS containing 5 μM CM-H2DCFDA (Invitrogen, Carlsbad, CA, USA) for 15 min at 37° C. To measure mitochondrial reactive oxygen species levels, cells were incubated with 5 μM MitoSOX (Invitrogen) for 15 minutes. FACS Canto II (BD) was used to monitor fluorescence levels.

RAW264.7 cells = assay: pHrodo green phagocytosis assay in RAW264.7 cells; type: cell-based; settings: FIG. 10C, 10D, 11D
Method: (§3) pHrodo™ green-conjugated E. coli Bioparticles™ were diluted in serum medium, incubated for 30 minutes and washed twice with PBS. Cells were incubated for the time indicated in the manufacturer's instructions and analyzed using a FACS Canto II flow cytometer (BD) or fluorescence microscope (DFC3000G; Leica, Wetzlar, Germany).
(§4) Pulse and chase phagocytosis assays were performed using pHrodo green to compare phagocytic activity between macrophages of WT and KO mice. In FIG. 11A, there was an increase in the intensity of the green fluorescence signal in the BMDM of WT mice, indicating the gradual maturation and fusion of phagosomes containing pHrodo green with lysosomes.

BMDM [2] = assay: pHrodo green E. coli Bioparticles phagocytosis assay in BMDM; type: cell-based, mouse; settings: for pHrodo intensity: BMDM of WT mice, FIG. 10B, 10D, 11B-11D
Method: as §3, §4

Raw 264.7 cells = assay: ROS measurement in Raw 264.7 cells upon LPS; type: cell-based; settings: FIG. 10H
BMDM [3] = assay: M1/M2 macrophage polarization of BMDM (FACS, Western blot); type: cell-based, mouse
Method: The cell suspension of Example 4 was stained with various combinations of fluorochrome-conjugated antibodies on ice for 20 minutes under dark conditions, wherein the antibodies included anti-CD45 (30-F11), anti-CD1 lb (M1/70), anti-F4/80 (BM8), anti-Ly6G (1A8), anti-Ly6C (HK1.4), anti-MHC II (M5/114.15.2), anti-CD11c (N418), anti-CD206 (MMR) and anti-CD86 (GL-1) (all purchased from Biolegend, San Diego, CA, USA). Samples were obtained from the FACS Canto II Flow Cytometer (BD, Franklin Lakes, NJ, USA). Data were analyzed using FlowJo™ Software (BD).
Next, it was determined whether NAMPT is involved in the polarization of M1 and M2 macrophages.

BMDM [4] = assay: NAD+ level measurement in BMDM; type: cell-based, mouse
Method: as §1, §2

[5] = mouse, in vivo
Text: It was further elucidated whether there was any clear cytotoxic effect by NMN injection in mice.

DSS-induced colitis = DSS-induced colitis model in NAMPT KO mice with NMN administration; type: in vivo, mouse
Text: Nampt^f/f mice (C57BL6), which have two loxP sites adjacent to exon 5, were crossed with LyzM-Cre mice (C57BL6) to specifically knock out (KO) NAMPT in myeloid cell lineages including macrophages (Nampt^f/fLyzMCre^+/− mice; hereinafter referred to as KO mice). KO mice (heterozygous) were used as mice knocked out of bone marrow-specific NAMPT, and Nampt^f/f mice (wild type; hereinafter referred to as WT mice) were used as controls. The mice were stored at the Ajou University Laboratory Animal Research Center and preserved according to the guidelines of the Institution's Animal Care and Use Committee, which approved all animal procedures (2020-0013).
Age- and gender-matched WT mice and KO mice were administered with 2.5% DSS (MP Biomedicals, Santa Ana, CA, USA) for 7 days and then allowed to recover for 7 days. Colitis severity was determined daily through a scoring system based on the sum of scores for the following parameters: weight loss (0 points=no weight loss/weight gain, 1=5 to 10% weight loss, 2=11 to 15% weight loss, 3=16 to 20% weight loss, and 4=21% or more weight loss); stool consistency (score of 0=normal and well formed, 2=very soft and not formed, and 4=loose stool); and hemorrhagic stool score (0=normal colored stool, 2=red colored stool, 4=bloody stool). The disease activity index (DAI) ranged from 0 to 12.
Histology was scored blindly using a semi-quantitative scoring system based on the sum of scores for the following parameters: presence of ulceration: 0=none, 1=present but very slight, 2=minimal, 3=moderate, 4=widespread; presence of inflammation: 0=none, 1=minimal, 2=mild, 3=moderate, 4=severe; degree of inflammation: 0=none, 1=mucosal, 2=mucosal+submucosal, 3=mucosal+submucosal+muscle penetration, 4=full thickness invasion. Immunohistochemistry was performed using rabbit anti-NAMPT (Bethyl Laboratories, TX, USA), rabbit anti-Ki-67 (Abcam, Cambridge, UK), rabbit anti-cleaved caspase 3 (Cell Signaling Technology), mouse anti-CD326 (EpCAM)-APC (Invitrogen) and mouse anti-F4/80 (Abcam) antibodies.
Apoptosis was assessed by the TUNEL assay using the Apoptag plus in situ apoptosis fluorescein detection kit (Merck) according to the manufacturer's instructions. TUNEL positive signals were corrected to total nuclear signals for each field. The phagocytic cells were stained using the Apoptag ISOL dual fluorescence apoptosis detection kit (Millipore) according to the manufacturer's instructions. The stained samples were then incubated overnight with mouse anti-F4/80 antibodies. Fluorescence images were obtained by a confocal microscope (A1R HD25, Nikon, Tokyo, Japan) and a slide scanner (Axioscan, Zeiss, Germany).

[6] = macrophages of KO mice, NMN with/without 6AN, FIG. 12I
[7] = NAMPT KO mice, 2.5% DSS, 500 mg/kg i.p.

NC(=O)c1ccc(N)nc1 [6AN, 6-aminonicotinamide]
NADPH levels (BMDM [1]; 6AN during LPS challenge, FIG. 12J): further reduced NADPH levels | NADPH levels (BMDM [1]; [6]): blocked | NADPH levels (BMDM [1]; macrophages of WT mice, FIG. 12H): reduced NADPH levels in a dose-dependent manner | ROS levels (BMDMs): decrease in ROS levels

CO/C1=C\C(C)=C\[C@@H](C)[C@@H](O)[C@@H](C)C/C(C)=C/C=C/[C@H](OC)[C@@H]([C@@H](C)[C@@H](O)[C@H](C)[C@@]2(O)C[C@@H](O)[C@H](C)[C@@H](C(C)C)O2)OC1=O [Baf A1, bafilomycin A1]
pHrodo intensity (RAW264.7 cells): reduced the fluorescence intensity | pHrodo intensity (BMDM [2]): reduced the fluorescence intensity

O=C(/C=C/c1cccnc1)NCCCCC1CCN(C(=O)c2ccccc2)CC1 [FK866]
NADPH levels (BMDM [1]; in LPS treatment, FIG. 12G): further decrease in NADPH levels | pHrodo intensity (RAW264.7 cells): reduced pHrodo intensity | pHrodo intensity (BMDM [2]): decreased | ROS production (Raw 264.7 cells; response to LPS): partially inhibited | polarization of M1 and M2 macrophages (BMDM [3]; BMDM treated with LPS/IFN-γ or IL-4, FACS, FIG. 7A, 7B): did not result in polarization of M1 and M2 macrophages | expression of M1 and M2 macrophage-specific markers (BMDM [3]; Western blot, FIG. 7D): did not affect | NAD+ levels (BMDM [4]; FIG. 12B): significantly reduced | NAD+ levels (BMDM [4]; LPS treatment): further decrease

NC(=O)c1ccc[n+]([C@@H]2O[C@H](COP(=O)([O-])OP(=O)(O)OC[C@H]3O[C@@H](n4cnc5c(N)ncnc54)[C@H](O)[C@@H]3O)[C@@H](O)[C@H]2O)c1 [NAD^+, nicotinamide adenine dinucleotide]
inhibitory effect of FK866 on ROS production (Raw 264.7 cells; LPS, FK866, NAD+ co-treatment): recovered

NC(=O)c1ccc[n+]([C@@H]2O[C@H](COP(=O)([O-])O)[C@@H](O)[C@H]2O)c1 [NMN, nicotinamide mononucleotide]
NADPH levels (BMDM [1]; in LPS treatment, FIG. 12G): increased NADPH levels | NADPH levels (BMDM [1]; [6]): restored NADPH levels | NADPH levels (BMDM [1]; macrophages of KO mice, FIG. 12D, 12E): increased NADPH levels | abnormalities in the colon, liver and spleen at the microscopic level [5]: no abnormalities | serum ALT level [5]: similar | serum AST level [5]: similar | survival (DSS-induced colitis; NAMPT KO mice, 2.5% DSS, 500 mg/kg NMN i.p. 3 times a week, 8 out of 12): 67% | DAI (DSS-induced colitis; [7]): restored | weight loss (DSS-induced colitis; [7]): restored | F4/80+ macrophage population (DSS-induced colitis; colon tissue, FIG. 14F): decrease | Ki-67+ cells (DSS-induced colitis; colon tissue, FIG. 14F): increased | positive signals of TUNEL (DSS-induced colitis; colon tissue, FIG. 14F): decreased | positive signals of cleaved caspase 3 (DSS-induced colitis; colon tissue, FIG. 14F): decreased | pHrodo fluorescence intensity (BMDM [2]; BMDM of KO mice): restored fluorescence intensity | NAD+ levels (BMDM [4]; after NAMPT knock out or FK866 treatment, FIG. 12B): restored the phenotype

Reference: patent publication US12318402B2, “Composition for treating or preventing colitis by NAMPT metabolic regulation” (AJOU UNIVERSITY INDUSTRY-ACADEMIC COOPERATION FOUNDATION, priority 2021, dated 2025)
